Consider ten molecules from ChEMBL document CHEMBL1126617, “A topochemical approach to explain morphiceptin bioactivity” (J Med Chem, 1993).

Experiment [1] addresses Delta-type opioid receptor (Mus musculus, UniProt P32300). Nature of the experiment: In vitro inhibitory activity against delta opioid receptor using mouse vas deferens (MVD) assay. It counts as tissue-based.
Another experiment concerns the target Mu-type opioid receptor (Cavia porcellus, UniProt P97266). Nature of the experiment: In vitro inhibitory activity against mu opioid receptor using guinea pig ileum (GPI) assay. It counts as tissue-based.

Sequence of Mu-type opioid receptor (P97266 whole entry): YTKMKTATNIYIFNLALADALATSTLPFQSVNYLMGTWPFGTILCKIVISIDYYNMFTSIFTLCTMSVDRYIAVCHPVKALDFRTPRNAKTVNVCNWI
Sequence of Delta-type opioid receptor (P32300 whole entry): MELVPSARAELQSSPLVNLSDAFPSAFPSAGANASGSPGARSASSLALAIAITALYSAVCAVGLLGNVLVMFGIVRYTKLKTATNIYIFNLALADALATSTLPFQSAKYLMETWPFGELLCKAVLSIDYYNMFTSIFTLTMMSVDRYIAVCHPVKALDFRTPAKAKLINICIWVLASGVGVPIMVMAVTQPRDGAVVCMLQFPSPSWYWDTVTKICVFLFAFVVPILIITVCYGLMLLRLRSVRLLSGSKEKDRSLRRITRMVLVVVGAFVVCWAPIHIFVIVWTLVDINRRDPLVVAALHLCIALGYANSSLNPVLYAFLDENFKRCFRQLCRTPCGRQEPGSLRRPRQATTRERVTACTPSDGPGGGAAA

As a reminder, the IC50 is the concentration that inhibits the measured activity by half. With `CN(C(=O)[C@@H]1CCCN1C(=O)[C@@H](N)Cc1ccc(O)cc1)[C@H](Cc1ccccc1)C(=O)N1CCC[C@@H]1C(N)=O`, the IC50 in experiment [1] is 565 µM; against Mu-type opioid receptor, 2.66 µM.

With `CN(C(=O)[C@@H]1CCCN1C(=O)[C@@H](N)Cc1ccc(O)cc1)[C@H](Cc1ccccc1)C(=O)N1CCC[C@H]1C(N)=O`, the IC50 is above 1000 µM in experiment [1] and above 100 µM on Mu-type opioid receptor.

With `CN(C(=O)[C@@H]1CCCN1C(=O)[C@@H](N)Cc1ccc(O)cc1)[C@@H](Cc1ccccc1)C(=O)N1CCC[C@H]1C(N)=O`, the IC50 in experiment [1] was 1.79 µM; against Mu-type opioid receptor it was 0.17 µM.

Take `NC(=O)[C@H]1CCCN1C(=O)[C@@H](Cc1ccccc1)NC(=O)[C@@H]1CCCN1C(=O)[C@@H](N)Cc1ccc(O)cc1`: the IC50 in experiment [1] stood at 4.81 µM; at Mu-type opioid receptor, 0.557 µM.

In the case of `NC(=O)[C@@H]1CCCN1C(=O)[C@@H](Cc1ccccc1)NC(=O)[C@@H]1CCCN1C(=O)[C@@H](N)Cc1ccc(O)cc1`, the IC50 in experiment [1] came to 0.594 µM; at Mu-type opioid receptor it was 0.109 µM. For the molecule `C[C@@H](C(=O)N[C@@H](Cc1ccccc1)C(=O)N1CCC[C@@H]1C(N)=O)N(C)C(=O)[C@@H](N)Cc1ccc(O)cc1`, the IC50 in experiment [1] was determined as 0.202 µM; against Mu-type opioid receptor, 0.0306 µM. Take `C[C@H](NC(=O)[C@@H](N)Cc1ccc(O)cc1)C(=O)N[C@@H](Cc1ccccc1)C(=O)N1CCC[C@@H]1C(N)=O`: the IC50 in experiment [1] was above 100 µM. Turning to `NC(=O)[C@H]1CCCN1C(=O)[C@H](Cc1ccccc1)NC(=O)[C@@H]1CCCN1C(=O)[C@@H](N)Cc1ccc(O)cc1`, the IC50 in experiment [1] was 1.51 µM; against Mu-type opioid receptor it was 0.0287 µM. `CN(C(=O)[C@@H]1CCCN1C(=O)[C@@H](N)Cc1ccc(O)cc1)[C@@H](Cc1ccccc1)C(=O)N1CCC[C@@H]1C(N)=O`: the IC50 in experiment [1] was determined as 1.25 µM; at Mu-type opioid receptor it was 0.0207 µM.

As to `NC(=O)[C@@H]1CCCN1C(=O)[C@H](Cc1ccccc1)NC(=O)[C@@H]1CCCN1C(=O)[C@@H](N)Cc1ccc(O)cc1` [MORPHICEPTIN], the IC50 in experiment [1] is 3.69 µM; on Mu-type opioid receptor, 0.552 µM.
